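Cells were grown in 96-well plates and exposed to each compound for 48 hours at five concentrations; endpoints were interpolated linearly between bracketing concentrations, or set to the highest concentration if not reached. At the TGI there is no net growth.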

Some test systems named below: A498 renal; A549 NSCLC; DU-145 prostate; EKVX NSCLC; HCC-2998 colon; HL-60(TB) leukemia; HS 578T breast; IGROV1 ovarian; M14 melanoma; MDA-MB-231 breast; NCI-H23 lung; NCI-H522 lung; OVCAR-3 ovarian; OVCAR-8 ovarian; PC-3 prostate; SK-MEL-5 melanoma; SNB-75 CNS; T-47D breast; U251 CNS; UACC-62 melanoma.
Common to all, as to test: growth of human tumour cells (NCI), 48 h

As for `CC(=O)O[C@H]1[C@@H](OC2CCCC2(c2ccccc2)c2ccccc2)O[N+]([O-])=C[C@@H]1c1ccccc1` (stereo not given in full), the TGI is 23.4 µM with A498 renal; 30.9 µM in the assay with A549 NSCLC; 23.7 µM in the assay with DU-145 prostate; 30.4 µM in the assay on EKVX NSCLC; 27.2 µM in the assay with HCC-2998 colon; 5.71 µM with HL-60(TB) leukemia. Further, the TGI in the assay on HS 578T breast is 20.5 µM; with IGROV1 ovarian it was 7.61 µM; in the assay on M14 melanoma, 18.5 µM; in the assay with MDA-MB-231 breast it was 40.9 µM; in the assay with NCI-H23 lung, 35.9 µM; in the assay with NCI-H522 lung it was 2.62 µM. Further, the TGI was 21 µM in the assay on OVCAR-3 ovarian; 6.53 µM with OVCAR-8 ovarian; 21.2 µM in the assay on PC-3 prostate; 25.6 µM in the assay on SK-MEL-5 melanoma; 18 µM with SNB-75 CNS; more than 37.9 µM in the assay with T-47D breast. In addition, the figures for the TGI with U251 CNS and in the assay on UACC-62 melanoma were 27.3 µM and 15.7 µM, respectively.
`Cc1ccc(NC(=O)CC(=O)N2N=C(N(c3ccccc3)c3ccccc3)CC2c2ccccc2)cc1` (stereo not given): the TGI in the assay with A498 renal, in the assay with A549 NSCLC, with DU-145 prostate, with EKVX NSCLC, with HCC-2998 colon and in the assay on HL-60(TB) leukemia was more than 100 µM in each case. Further, the TGI in the assay on HS 578T breast is 86 µM; in the assay on IGROV1 ovarian it was more than 100 µM; with M14 melanoma, more than 100 µM; with MDA-MB-231 breast it was more than 100 µM; with NCI-H23 lung, more than 100 µM; in the assay with NCI-H522 lung, more than 100 µM. The TGI in the assay on OVCAR-3 ovarian, in the assay with OVCAR-8 ovarian, in the assay with PC-3 prostate, in the assay on SK-MEL-5 melanoma, with SNB-75 CNS and with T-47D breast was more than 100 µM in each case. Also, the TGI with U251 CNS and in the assay with UACC-62 melanoma was more than 100 µM each time.
As for `CC(=O)Nn1c(Cc2ccc(Cl)cc2)nn(C)c1=O`, the TGI with A498 renal, in the assay with A549 NSCLC, in the assay on DU-145 prostate, in the assay with EKVX NSCLC, in the assay with HCC-2998 colon and in the assay on HL-60(TB) leukemia was more than 100 µM throughout. For the same compound, the TGI in the assay with HS 578T breast, with IGROV1 ovarian, with M14 melanoma, with MDA-MB-231 breast, in the assay with NCI-H23 lung and in the assay on NCI-H522 lung was more than 100 µM throughout. The TGI in the assay on OVCAR-3 ovarian, in the assay on OVCAR-8 ovarian, in the assay on PC-3 prostate, in the assay on SK-MEL-5 melanoma, in the assay with SNB-75 CNS and in the assay on T-47D breast was more than 100 µM in each case. For the same compound, the TGI in the assay with U251 CNS and with UACC-62 melanoma was more than 100 µM each time.
For `CN(C)/C=N/c1cc(=O)n(C)c(=O)n1C`, the TGI with A498 renal, with A549 NSCLC, in the assay with DU-145 prostate, with EKVX NSCLC, with HCC-2998 colon and in the assay with HL-60(TB) leukemia was more than 100 µM in each case. In addition, the TGI with HS 578T breast, in the assay with IGROV1 ovarian, with M14 melanoma, in the assay with MDA-MB-231 breast, in the assay with NCI-H23 lung and in the assay on NCI-H522 lung was more than 100 µM each time. Moreover, the TGI in the assay on OVCAR-3 ovarian, in the assay on OVCAR-8 ovarian, in the assay with PC-3 prostate, with SK-MEL-5 melanoma, in the assay with SNB-75 CNS and in the assay with T-47D breast was more than 100 µM throughout. Further, the TGI in the assay on U251 CNS and with UACC-62 melanoma was more than 100 µM in each case.
For the compound `COC(=O)c1ccccc1C1CN=NC12Cc1cc3c(cc1C2=O)CCC3` (stereo not given), the TGI in the assay on A498 renal was more than 100 µM; with A549 NSCLC, more than 100 µM; in the assay on DU-145 prostate, more than 100 µM; in the assay with EKVX NSCLC, more than 100 µM; in the assay on HCC-2998 colon, more than 100 µM; in the assay with HL-60(TB) leukemia it was 61.5 µM. Moreover, the TGI with HS 578T breast, in the assay with IGROV1 ovarian, in the assay on M14 melanoma, with MDA-MB-231 breast, in the assay on NCI-H23 lung and in the assay on NCI-H522 lung was more than 100 µM in each case. Besides, the TGI with OVCAR-3 ovarian was more than 100 µM; in the assay on OVCAR-8 ovarian, more than 100 µM; in the assay on PC-3 prostate it was more than 100 µM; in the assay on SK-MEL-5 melanoma, 48.7 µM; in the assay with SNB-75 CNS it was more than 100 µM; in the assay with T-47D breast, more than 100 µM. In addition, the TGI in the assay with U251 CNS and in the assay on UACC-62 melanoma was more than 100 µM each time.
As for `c1ccc(CN2C3C4N(Cc5ccccc5)C2C2N(Cc5ccccc5)C(C(N2Cc2ccccc2)N4Cc2ccccc2)N3Cc2ccccc2)cc1`, the TGI with A498 renal, in the assay with A549 NSCLC, with DU-145 prostate, in the assay on EKVX NSCLC, in the assay on HCC-2998 colon and in the assay on HL-60(TB) leukemia was more than 100 µM in each case. In addition, the TGI in the assay on HS 578T breast, in the assay on IGROV1 ovarian, in the assay with M14 melanoma, with MDA-MB-231 breast, in the assay on NCI-H23 lung and in the assay with NCI-H522 lung was more than 100 µM in each case. For the same compound, the TGI with OVCAR-3 ovarian, with OVCAR-8 ovarian, in the assay on PC-3 prostate, in the assay with SK-MEL-5 melanoma, with SNB-75 CNS and in the assay on T-47D breast was more than 100 µM in each case. The TGI with U251 CNS and in the assay with UACC-62 melanoma was more than 100 µM throughout.

The values are drawn from PubChem BioAssay (NCI).
